Data: US9481910B2, “Methods and compositions for the detection of drug resistant BRAF isoforms” (MEMORIAL SLOAN-KETTERING CANCER CENTER, priority 2011, dated 2016)
“Also recorded” adds a separate entry of the source.

What was measured:
[1] = system: PLX4032-resistant SKMEL-239 clones; assay: Sensitivity of PLX4032-resistant SKMEL-239 clones to MEK inhibitor (5-day proliferation, pMEK/pERK dose-response); type: cell-based, human; settings: all five resistant clones; slightly higher doses than in the parental cell line
Description: (§1) For proliferation assays, cells were plated in 6-well plates, and 24 hours later were treated with varying concentrations of inhibitors, or vehicle control, as indicated. IC50 values were calculated using Graph Pad Prism v.5. For cell cycle and apoptosis studies, cells were seeded in 6-well dishes the day prior to drug treatment. For analysis, both adherent and floating cells were harvested and stained with ethidium bromide as described previously 21.

SKMEL-239 cells = assay: Cell cycle and cell death (sub-G1 peak by FACS) in SKMEL-239 parental cells and resistant clones; type: cell-based, human
Description: as §1

p61 BRAF(V600E) [2] = biological target: T1, p61 BRAF(V600E) (Homo sapiens, UniProt P15056, DEL169-380/V600E); assay: ERK signaling in 293H cells ectopically expressing p61 BRAF(V600E); type: cell-based; settings: 293H cells expressing p61 BRAF(V600E), 2 μM for 1 hour
Description: (§2) The BRAF inhibitor, PLX403219 (vemurafenib) was obtained from Plexxikon Inc. PD0325901 was synthesized in the MSKCC Organic Synthesis Core Facility. Flag-tagged BRAF constructs have been described previously4. All other plasmids were created using standard cloning methods, with pcDNA3.1 (Invitrogen) as a vector. Mutations were introduced using the site-directed Mutagenesis Kit (Stratagene). For transfection studies, cells were seeded on 35 mm or 100 mm plates and transfected the following day using Lipofectamine 2000 (Invitrogen). Cells were collected 24 hours later for subsequent analysis. cDNA Preparation and PCR.

p61 BRAF(V600E) [3] = biological target: T1, p61 BRAF(V600E); assay: ERK signaling in SKMEL-239 or HT-29 cells ectopically expressing p61 BRAF(V600E); type: cell-based; settings: 1 hour
Description: as §2

p61 BRAF(V600E) [4] = biological target: T1, p61 BRAF(V600E); assay: In vitro kinase assay of immunoprecipitated V5-tagged p61 BRAF(V600E), inactive MEK(K97R) as substrate; type: biochemical; settings: 200 μM ATP, 30° C., 20 min
Description: V5-tagged full length BRAF(V600E) or V5-tagged p61 BRAF(V600E) were ectopically expressed in 293H cells. 24 hours later, cells were harvested, lysed and BRAF was immunoprecipitated using a V5 antibody. […] Kinase activity was estimated by western blot for pMEK.
Immunoprecipitations and kinase assays. Cells were lysed in lysis buffer (50 mM Tris, pH7.5, 1% NP40, 150 mM NaCl, 10% glycerol, 1 mM EDTA) supplemented with protease and phosphatase inhibitor cocktail tablets (Roche). Immunoprecipitations were performed at 4° C. for 4 h, followed by three washes with lysis buffer and, in cases of subsequent kinase assay, one final wash with kinase buffer (25 mM Tris, pH 7.5, 10 mM MgCl2). […] The kinase reaction was terminated by adding sample buffer and boiling. Kinase activity was determined by immunoblotting for pMEK.

BRAF(V600E/R509H) = BRAF(V600E/R509H) (Homo sapiens, UniProt P15056, R509H/V600E); assay: ERK signaling in 293H cells expressing the dimerization mutant BRAF(V600E/R509H); type: cell-based; settings: 2 μM for 1 hour
Description: as §2

p61 BRAF(V600E/R509H) = p61 BRAF(V600E/R509H) (Homo sapiens, UniProt P15056, DEL169-380/R509H/V600E); assay: ERK signaling in 293H cells expressing p61 BRAF(V600E/R509H); type: cell-based; settings: 2 μM for 1 hour
Description: as §2

[5] = system: HT-29 cells (colorectal; BRAF(V600E)) expressing NRAS(G12V); assay: MEK/ERK in HT-29 cells transfected with HA-tagged NRAS(G12V); type: cell-based; settings: various concentrations, 1 h
[6] = system: HT-29 cells (colorectal; BRAF(V600E)) expressing HER2 (V654E); assay: MEK/ERK in HT-29 cells transfected with activated HER2 (V654E); type: cell-based; settings: various concentrations, 1 h
[7] = system: wild-type (+/+), BRAF−/− or CRAF−/− MEFs; assay: MEK/ERK activation in wild-type, BRAF knockout or CRAF knockout MEFs; type: cell-based; settings: indicated concentrations, 1 h
[8] = system: ERK signaling (pMEK, pERK); assay: ERK signaling (pMEK/pERK Western blot) in SKMEL-239 parental cells and PLX4032-resistant clones
Description: Western blotting and receptor tyrosine kinase (RTK) arrays. Western blot analysis was performed as previously described13. The following antibodies were used: p217/p221-MEK (pMEK), p202/p204-ERK (pERK), MEK, ERK, (Cell Signaling), V5 tag (Invitrogen), BRAF, cyclin Flag tag, β-actin (Sigma).

[9] = parental SKMEL-239, 2 μM PLX4032

T1 sequence (P15056 with tags, fused parts or gaps DEL169-380/V600E): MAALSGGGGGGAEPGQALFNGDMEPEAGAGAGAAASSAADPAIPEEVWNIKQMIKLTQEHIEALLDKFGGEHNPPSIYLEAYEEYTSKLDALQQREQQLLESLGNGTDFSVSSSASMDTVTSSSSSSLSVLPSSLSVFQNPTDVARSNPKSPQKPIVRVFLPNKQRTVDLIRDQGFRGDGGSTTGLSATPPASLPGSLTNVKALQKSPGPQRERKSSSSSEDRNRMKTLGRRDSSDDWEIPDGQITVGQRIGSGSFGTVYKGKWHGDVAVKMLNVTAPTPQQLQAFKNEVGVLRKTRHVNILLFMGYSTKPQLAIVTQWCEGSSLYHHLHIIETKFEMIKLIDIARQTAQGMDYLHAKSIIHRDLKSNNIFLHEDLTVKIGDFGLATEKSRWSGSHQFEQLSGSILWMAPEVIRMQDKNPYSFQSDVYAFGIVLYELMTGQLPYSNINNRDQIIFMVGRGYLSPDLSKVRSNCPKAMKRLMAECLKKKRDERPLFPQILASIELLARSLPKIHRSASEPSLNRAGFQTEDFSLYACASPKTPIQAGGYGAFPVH
Sequence of BRAF(V600E/R509H) (P15056 whole entry R509H/V600E): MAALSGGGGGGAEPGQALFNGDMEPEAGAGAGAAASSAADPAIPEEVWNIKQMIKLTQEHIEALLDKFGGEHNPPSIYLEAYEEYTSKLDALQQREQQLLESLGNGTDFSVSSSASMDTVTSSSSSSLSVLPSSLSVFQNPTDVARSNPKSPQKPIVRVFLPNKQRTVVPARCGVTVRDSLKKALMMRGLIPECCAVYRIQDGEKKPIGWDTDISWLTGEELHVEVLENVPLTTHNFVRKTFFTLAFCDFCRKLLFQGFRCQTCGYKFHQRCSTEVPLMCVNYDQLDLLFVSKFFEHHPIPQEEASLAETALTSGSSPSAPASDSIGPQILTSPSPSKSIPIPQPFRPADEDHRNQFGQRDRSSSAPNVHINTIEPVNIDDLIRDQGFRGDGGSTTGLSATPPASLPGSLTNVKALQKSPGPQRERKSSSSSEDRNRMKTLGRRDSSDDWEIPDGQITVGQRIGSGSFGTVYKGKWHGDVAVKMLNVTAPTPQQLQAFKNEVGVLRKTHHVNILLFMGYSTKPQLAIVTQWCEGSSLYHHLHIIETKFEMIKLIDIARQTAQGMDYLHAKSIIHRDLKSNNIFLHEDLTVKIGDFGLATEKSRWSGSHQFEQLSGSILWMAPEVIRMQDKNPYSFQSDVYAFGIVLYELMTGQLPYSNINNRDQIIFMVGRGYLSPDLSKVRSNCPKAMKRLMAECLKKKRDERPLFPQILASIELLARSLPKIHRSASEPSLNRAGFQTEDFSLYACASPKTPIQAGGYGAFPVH
Sequence of p61 BRAF(V600E/R509H) (P15056 with tags, fused parts or gaps DEL169-380/R509H/V600E): as the sequence (P15056 with tags, fused parts or gaps DEL169-380/V600E) above, with R297H counted along it

O=C(NOC[C@H](O)CO)c1ccc(F)c(F)c1Nc1ccc(I)cc1F [PD032590113]
sensitivity to the MEK inhibitor [1]: retained sensitivity

CCCS(=O)(=O)Nc1ccc(F)c(C(=O)c2c[nH]c3ncc(-c4ccc(Cl)cc4)cc23)c1F [PLX4032]
cell death (sub-G1 peak by FACS) (SKMEL-239 cells; five PLX4032-resistant SKMEL-239 clones): not in the five resistant clones | cell cycle effect (SKMEL-239 cells; [9]): accumulation of cells in G1 | cell death (sub-G1 peak by FACS) (SKMEL-239 cells; parental SKMEL-239 cells): significant induction of cell death; also recorded: induced cell death | sensitivity of ERK signaling (pMEK, pERK) (p61 BRAF(V600E) [2]): resistant; also recorded: insensitive | inhibition of ERK signaling (p61 BRAF(V600E) [3]; HT-29 cells expressing p61 BRAF(V600E)): failure of PLX4032 to effectively inhibit ERK signaling | inhibition of ERK signaling (p61 BRAF(V600E) [3]; parental SKMEL-239 cells expressing p61 BRAF(V600E)): failure of PLX4032 to effectively inhibit ERK signaling | inhibition of kinase activity in vitro (pMEK Western blot) (p61 BRAF(V600E) [4]): can be inhibited in vitro | sensitivity of ERK signaling (BRAF(V600E/R509H)): remained sensitive | inhibition of ERK signaling (p61 BRAF(V600E/R509H)): inhibited | sensitivity of MEK/ERK to RAF inhibitor [5]: insensitive | sensitivity of MEK/ERK to RAF inhibitor [6]: insensitive | MEK/ERK activation [7]: MEK/ERK activation does not require BRAF | sensitivity of ERK signaling to the drug ([8]; PLX4032-resistant SKMEL-239 cells): decreased sensitivity | IC50 for pMEK inhibition relative to the parental cell line ([8]; SKMEL-239 C3 clone, 1 hour): more than 100 fold | pMEK IC50 relative to the parental clone ([8]; SKMEL-239 C5 clone, 1 hour): 4.5 fold | inhibition of ERK signaling [8, 9]: effectively inhibits ERK signaling
